Source: article PMC12549914 (Nature Communications, 2025)

How the values were obtained:
[1] = target: T1, LYC1 (Yarrowia lipolytica, UniProt P41929); test: LC-MS of dansylated product; type: biochemical; conditions: with acetyl-CoA
T1 sequence (P41929 1-392): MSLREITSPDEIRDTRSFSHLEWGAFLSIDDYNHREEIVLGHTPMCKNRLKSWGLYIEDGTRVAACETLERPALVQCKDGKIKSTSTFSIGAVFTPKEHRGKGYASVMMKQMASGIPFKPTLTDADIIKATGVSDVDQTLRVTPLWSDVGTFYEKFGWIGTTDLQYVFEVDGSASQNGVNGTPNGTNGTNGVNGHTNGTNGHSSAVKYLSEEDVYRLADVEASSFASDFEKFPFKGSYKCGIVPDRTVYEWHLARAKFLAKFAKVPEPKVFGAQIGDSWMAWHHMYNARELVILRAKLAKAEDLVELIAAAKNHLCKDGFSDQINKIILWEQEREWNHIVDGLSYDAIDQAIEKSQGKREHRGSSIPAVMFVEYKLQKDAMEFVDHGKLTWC

[2] = tested on: RDW23166.1; conditions: acetyl-CoA co-substrate presumed; conditions in supplement

NCCCC[C@H](N)C(=O)O [lysine]
LC-MS of dansylated product [1]: confirming that LYC1 catalyzes lysine acetylation specifically with acetyl-CoA as the substrate
Km [2]: 6.21 mM
